{"source": "paper PMC4579271", "about": "“Inflammatory Signaling by NOD-RIPK2 Is Inhibited by Clinically Relevant Type II Kinase Inhibitors” (Chemistry & Biology, 2015)", "key": {"[1]": {"tested_on": "RIPK1 ubiquitination and IκBα degradation in THP-1 cells", "experiment": "TUBE purification and immunoblot, TNF-stimulated THP-1 cells", "type": "cell-based, human", "settings": "TNF treatment", "description": "Figure 5 Inhibition of NOD2-Dependent Ubiquitination and Signaling (A–C) THP-1 cells were pre-treated with kinase inhibitors or DMSO for 30 min and stimulated with 200 ng/ml L18-MDP (A, B) or TNF (C) as indicated. At the indicated time points, cells were lysed and ubiquitinated proteins were isolated using TUBE reagent. The isolated ubiquitinated proteins and input material were analyzed by immunoblotting. See also Figure S6.\nThe ubiquitin conjugates were purified using GST-Tandem Ubiquitin Binding Entities (TUBE; [Fiil et al., 2013]). In brief, treated THP-1 cells (6–10 × 10^6) were washed with PBS and lysed in 400 μl of ice-cold lysis buffer containing TUBE on ice for 30 min. Cleared lysates were incubated with Glutathione Sepharose 4B resin (Amersham) with agitation at 4°C overnight. The beads were washed four times with PBS-Tween (0.1%) and the bound proteins were released by heating the beads in reducing SDS sample buffer. The samples were resolved on pre-cast gradient gels (NuPage; Life Technologies) in MOPS running buffer and subjected to immunoblotting."}, "[2]": {"tested_on": "NOD2-dependent TNF production in primary human monocytes", "experiment": "Flow cytometry of intracellular TNF in primary human monocytes, L18-MDP", "type": "cell-based", "description": "Experimental conditions are measured in 4–5 healthy donors. […] Gray background indicates range without inhibitors. See also Figure S7."}, "[3]": {"tested_on": "TNF production by LPS stimulation in primary human monocytes", "settings": "200 ng/ml LPS"}, "RIPK1": {"target": "T1, RIPK1 (Homo sapiens, UniProt Q13546)", "T1 sequence (Q13546 1-671)": "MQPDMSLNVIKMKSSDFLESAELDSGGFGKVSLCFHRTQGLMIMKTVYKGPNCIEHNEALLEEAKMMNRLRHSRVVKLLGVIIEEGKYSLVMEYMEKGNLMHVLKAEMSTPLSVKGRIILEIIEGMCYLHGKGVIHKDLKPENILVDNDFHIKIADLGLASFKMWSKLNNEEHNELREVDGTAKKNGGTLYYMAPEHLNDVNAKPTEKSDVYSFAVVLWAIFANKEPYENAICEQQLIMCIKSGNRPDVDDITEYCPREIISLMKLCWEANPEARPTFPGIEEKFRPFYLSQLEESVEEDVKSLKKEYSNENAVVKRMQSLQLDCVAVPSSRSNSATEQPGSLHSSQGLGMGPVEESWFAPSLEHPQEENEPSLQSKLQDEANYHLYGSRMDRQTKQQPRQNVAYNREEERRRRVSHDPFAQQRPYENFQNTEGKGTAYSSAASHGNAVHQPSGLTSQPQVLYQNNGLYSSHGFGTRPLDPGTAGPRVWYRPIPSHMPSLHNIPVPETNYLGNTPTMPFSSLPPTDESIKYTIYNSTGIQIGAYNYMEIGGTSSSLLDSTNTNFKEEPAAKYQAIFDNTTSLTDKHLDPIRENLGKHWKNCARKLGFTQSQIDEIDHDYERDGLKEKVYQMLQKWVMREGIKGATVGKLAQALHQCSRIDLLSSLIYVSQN", "parameters": "method as in Najjar et al., 2015", "settings": "ref Najjar et al., 2015; cited from earlier work"}, "[4]": {"parameters": "method as in Cortes et al., 2013", "settings": "clinical use; ref Cortes et al., 2013; cited from earlier work"}, "[5]": {"tested_on": "RAW264.7 macrophage cells", "experiment": "Cell viability and morphology, 24 hours", "settings": "100 nM"}, "[6]": {"tested_on": "phospho-Ser176-RIPK2 (p-RIPK2) in NOD2-expressing HEK293 cells", "experiment": "Western blot of phospho-Ser176-RIPK2 in HEKBlue cells after L18-MDP"}, "[7]": {"tested_on": "NF-κB activation in U2OS cells", "experiment": "NF-κB dual luciferase reporter assay in U2OS cells overexpressing HA-NOD2", "settings": "100 nM, 24 hr"}, "[8]": {"tested_on": "RIPK2 ubiquitination in THP-1 cells", "experiment": "TUBE purification of ubiquitin conjugates, L18-MDP-stimulated THP-1 cells", "settings": "200 ng/ml L18-MDP"}}}
{"smiles": "Cc1ccc(C(=O)Nc2ccc(CN3CCN(C)CC3)c(C(F)(F)F)c2)cc1C#Cc1cnc2cccnn12", "note": "[ponatinib, 3-[2-(imidazo[1,2-b]pyridazin-3-yl)ethynyl]-4-methyl-N-{4-[(4-methylpiperazin-1-yl)methyl]-3-(trifluoromethyl)phenyl}benzamide]", "values": [{"measurement": "ubiquitination of RIPK1 or IκBα degradation", "setting": "[1]", "value": "no obvious effects"}, {"measurement": "concentration completely abrogating NOD2-dependent TNF production", "setting": "[2]", "value": 10, "unit": "nM"}, {"measurement": "concentration attenuating TNF production by LPS stimulation", "setting": "[3]", "value": 1, "unit": "µM"}, {"measurement": "inhibition of RIPK1 kinase activity in necroptosis", "setting": "RIPK1", "value": "efficient inhibitor"}, {"measurement": "adverse events", "setting": "[4]", "value": "serious adverse events including vascular thrombosis"}, {"measurement": "morphology of RAW cells", "setting": "[5]", "value": "caused rounding of RAW cells"}, {"measurement": "concentration completely blocking RIPK2 phosphorylation", "setting": "[6]", "value": 10, "unit": "nM"}, {"measurement": "NF-κB activation", "setting": "[7]", "value": "completely disabled"}, {"measurement": "concentration completely blocking RIPK2 ubiquitination", "setting": "[8]", "value": "≥ 25", "unit": "nM"}, {"measurement": "concentration reducing extent and length of ubiquitin-modified RIPK2", "setting": "[8]", "value": "5 to 10", "unit": "nM"}]}
